The values below come from patent publication US20030176327A1 (priority 2001, published 2003).

Structures can show the parent of a compound that is named as a salt.

The test system of assay [1] is Burkholderia mallei. The format is cell-based.
Assay [2] concerns Clostridium botulinin. It is filed as cell-based.
Assay [3] relates to Clostridium perfringens. The format is cell-based.
The subject of assay [4] is Yersinia Pestis. It is filed as cell-based.
For assay [5], the system named is Brucella abortis, B milletensis and B suis. It is filed as cell-based.
The subject of assay [6] is Bacillus anthracis. The format is cell-based.
Assay [7] has as its system Francisella tularensis. The format is cell-based.
Assay [8] deals with B anthracis. Particulars: cited from earlier work.
For assay [9], the system named is anthrax infection. Particulars: in vivo; cited from earlier work.

For the compound `N[C@@H](C(=O)N[C@@H]1C(=O)N2C(C(=O)O)=C(Cl)CS[C@H]12)c1ccccc1` [Cefaclor, 3-chloro-7-D-(2-phenylglycinamido)-3-cephem-4-carboxylic acid monohydrate], in [1], the “Suitability against Burkholderia mallei” value is “No”. Further, the “Suitability against Clostridium botulinin” value in assay [2] is listed as “No”. For the same compound, the “Suitability against Clostridium perfringens” value in assay [3] is recorded as “No”. The “Suitability against Yersinia Pestis” value in [4] is recorded as “Yes”. The “Suitability against Brucella abortis, B milletensis and B suis” value (“Suitability against Brucella abortis” below) in assay [5] is on record as “No”. Also, in assay [6], the “Suitability against Bacillus anthracis” value was “Yes”. Besides, the “Suitability against Francisella tularensis” value in assay [7] is “Yes”.
With `Cn1nnnc1SCC1=C(C(=O)O)N2C(=O)[C@@H](NC(=O)[C@H](O)c3ccccc3)[C@H]2SC1` [Cefamandole], the “Suitability against Burkholderia mallei” value in [1] was “No”. Moreover, the “Suitability against Clostridium botulinin” value in assay [2] is “No”. Further, the “Suitability against Clostridium perfringens” value in [3] is given as “No”. The “Suitability against Yersinia Pestis” value in [4] is reported as “Yes”. Further, in assay [5], the “Suitability against Brucella abortis” value is reported as “No”. In assay [6], the “Suitability against Bacillus anthracis” value was “Yes”. Also, the “Suitability against Francisella tularensis” value in assay [7] is on record as “Yes”.
Take `Cc1nnc(SCC2=C(C(=O)O)N3C(=O)[C@@H](NC(=O)Cn4cnnn4)[C@H]3SC2)s1` [Cefazolin]: the “Suitability against Burkholderia mallei” value in [1] is listed as “No”. The “Suitability against Yersinia Pestis” value in assay [4] is recorded as “Yes”. Also, in [5], the “Suitability against Brucella abortis” value was “No”. Besides, the “Effective against B anthracis in vitro” value in assay [8] is on record as “effective”. In addition, the “Suitability against Bacillus anthracis” value in assay [6] was “Yes”. The “Suitability against Francisella tularensis” value in [7] was “Yes”.
On to `CO/N=C(\C(=O)N[C@@H]1C(=O)N2C(C(=O)O)=C(COC(N)=O)CS[C@H]12)c1ccco1` [Cefuroxime], for which, in [1], the “Suitability against Burkholderia mallei” value is “No”. Moreover, in assay [2], the “Suitability against Clostridium botulinin” value is listed as “No”. The “Suitability against Clostridium perfringens” value in assay [3] was “No”. For the same compound, the “Suitability against Yersinia Pestis” value in [4] is “Yes”. In addition, in assay [5], the “Suitability against Brucella abortis” value is given as “No”. Further, the “Suitability against Bacillus anthracis” value in [6] is “Yes”. Also, the “Suitability against Francisella tularensis” value in assay [7] was “Yes”.
Regarding `CC1=C(C(=O)O)N2C(=O)[C@@H](NC(=O)[C@H](N)c3ccccc3)[C@H]2SC1` [Cephalexin Monohydrate], the “Suitability against Burkholderia mallei” value in [1] is given as “No”. Besides, the “Suitability against Clostridium botulinin” value in assay [2] is “No”. Also, the “Suitability against Clostridium perfringens” value in assay [3] is listed as “No”. For the same compound, the “Suitability against Yersinia Pestis” value in assay [4] is recorded as “Yes”. Moreover, in assay [5], the “Suitability against Brucella abortis” value is listed as “No”. Further, the “Suitability against Bacillus anthracis” value in [6] is given as “Yes”. The “Suitability against Francisella tularensis” value in assay [7] is recorded as “Yes”.
In the case of `CC(=O)OCC1=C(C(=O)O)N2C(=O)[C@@H](NC(=O)Cc3cccs3)[C@H]2SC1` [Cephalothin], the “Suitability against Burkholderia mallei” value in [1] is reported as “No”. In addition, the “Suitability against Clostridium botulinin” value in assay [2] is on record as “No”. In addition, the “Suitability against Clostridium perfringens” value in assay [3] is “No”. The “Suitability against Yersinia Pestis” value in assay [4] is “Yes”. The “Suitability against Brucella abortis” value in [5] is given as “No”. In assay [6], the “Suitability against Bacillus anthracis” value is on record as “Yes”. Also, in [7], the “Suitability against Francisella tularensis” value is “Yes”.
For the compound `CCn1nc(C(=O)O)c(=O)c2cc3c(cc21)OCO3` [Cinoxacin], in [1], the “Suitability against Burkholderia mallei” value is “No”. The “Suitability against Clostridium botulinin” value in assay [2] is listed as “No”. Besides, the “Suitability against Clostridium perfringens” value in assay [3] is “No”. Besides, the “Suitability against Yersinia Pestis” value in assay [4] is recorded as “Yes”. Moreover, the “Suitability against Brucella abortis” value in assay [5] is given as “No”. In addition, the “Suitability against Bacillus anthracis” value in assay [6] is on record as “Yes”. For the same compound, in [7], the “Suitability against Francisella tularensis” value is reported as “Yes”.
In the case of `CCCCCCCCCC(=O)N[C@@H](Cc1c[nH]c2ccccc12)C(=O)N[C@H](CC(N)=O)C(=O)N[C@@H](CC(=O)O)C(=O)N[C@@H]1C(=O)NCC(=O)N[C@@H](CCCN)C(=O)N[C@@H](CC(=O)O)C(=O)N[C@H](C)C(=O)N[C@@H](CC(=O)O)C(=O)NCC(=O)N[C@H](CO)C(=O)N[C@@H]([C@H](C)CC(=O)O)C(=O)N[C@@H](CC(=O)c2ccccc2N)C(=O)O[C@@H]1C` [Daptomycin, N-(1-oxodecyl)-L-tryptophyl-L-asparaginyl-L-A-aspartyl-L-threonylglycyl-L-ornithyl-L-A-aspartyl-D-alanyl-L-A-aspartylglycyl-D-seryl-threo-3-methyl-L-A-glutamyl-G-(2-aminophenyl)-G-oxo-L-A-aminobutanoicacid, E1-lactone], the “Suitability against Burkholderia mallei” value in assay [1] is listed as “No”. Moreover, the “Suitability against Clostridium botulinin” value in [2] is “Yes*”. The “Suitability against Clostridium perfringens” value in assay [3] is reported as “Yes**”. Besides, in assay [4], the “Suitability against Yersinia Pestis” value was “No”. Moreover, the “Suitability against Brucella abortis” value in assay [5] was “No”. The “Suitability against Bacillus anthracis” value in assay [6] is “Yes”. In addition, the “Suitability against Francisella tularensis” value in [7] was “No”.
Regarding `N[C@@H](C(=O)N[C@@H]1C(=O)N2C(C(=O)O)=C(Cl)CC[C@H]12)c1ccccc1.O` [Loracarbef, (6R,7S)-7-[(R)-2-amino-2-phenylacetamido]-3-chloro-8-oxo-1-azabicyclo[4.2.0]oct-2-ene-2-carboxylic acid, monohydrate], the “Suitability against Burkholderia mallei” value in assay [1] was “No”. Besides, the “Suitability against Clostridium botulinin” value in assay [2] was “No”. Moreover, the “Suitability against Clostridium perfringens” value in assay [3] is “No”. Also, the “Suitability against Yersinia Pestis” value in assay [4] is “Yes”. Also, the “Suitability against Brucella abortis” value in assay [5] is listed as “No”. In addition, the “Suitability against Bacillus anthracis” value in assay [6] is reported as “Yes”. Further, in assay [7], the “Suitability against Francisella tularensis” value was “Yes”.
As for `CN[C@H](CC(C)C)C(=O)N[C@H]1C(=O)N[C@@H](CC(N)=O)C(=O)N[C@H]2C(=O)N[C@H]3C(=O)N[C@H](C(=O)N[C@H](C(=O)O)c4cc(O)cc(O)c4-c4cc3ccc4O)[C@H](O[C@H]3C[C@](C)(N)[C@@H](O)[C@H](C)O3)c3ccc(c(Cl)c3)Oc3cc2cc(c3O[C@@H]2O[C@H](CO)[C@@H](O)[C@H](O)[C@H]2O[C@H]2C[C@](C)(NCc3ccc(-c4ccc(Cl)cc4)cc3)[C@@H](O)[C@H](C)O2)Oc2ccc(cc2Cl)[C@H]1O` [Oritavancin, (4″R)-22-O-(3-amino-2,3,6-trideoxy-3-C-methyl-A-L-arabino-hexopyranosyl)-N3″-((4-chloro(1,1′-biphenyl)-4′-yl)methyl)vancomycin], the “Suitability against Burkholderia mallei” value in assay [1] is given as “No”. For the same compound, the “Suitability against Clostridium botulinin” value in [2] is recorded as “Yes*”. For the same compound, in [3], the “Suitability against Clostridium perfringens” value was “Yes**”. Besides, the “Suitability against Yersinia Pestis” value in assay [4] was “No”. Further, the “Suitability against Brucella abortis” value in [5] is “No”. For the same compound, the “Suitability against Bacillus anthracis” value in assay [6] is reported as “Yes”. Moreover, the “Suitability against Francisella tularensis” value in [7] is “No”.
For the compound `NC[C@H]1O[C@H](O[C@H]2[C@H](O)[C@@H](O[C@H]3O[C@H](CO)[C@@H](O)[C@H](N)[C@H]3O)[C@H](N)C[C@@H]2N)[C@H](N)C[C@@H]1O` [Tobramycin], in assay [1], the “Suitability against Burkholderia mallei” value was “Yes”. Moreover, the “Suitability against Clostridium botulinin” value in assay [2] was “No”. In addition, in [3], the “Suitability against Clostridium perfringens” value was “No”. Further, the “Suitability against Yersinia Pestis” value in assay [4] is listed as “Yes”. Also, the “Suitability against Brucella abortis” value in [5] is “Yes”. In addition, the “Suitability against Bacillus anthracis” value in assay [6] is listed as “Yes”. Further, the “Suitability against Francisella tularensis” value in assay [7] is recorded as “Yes”.
Take `CN[C@H](CC(C)C)C(=O)N[C@H]1C(=O)N[C@@H](CC(N)=O)C(=O)N[C@H]2C(=O)N[C@H]3C(=O)N[C@H](C(=O)N[C@H](C(=O)O)c4cc(O)cc(O)c4-c4cc3ccc4O)[C@H](O)c3ccc(c(Cl)c3)Oc3cc2cc(c3O[C@@H]2O[C@H](CO)[C@@H](O)[C@H](O)[C@H]2O[C@H]2C[C@](C)(N)[C@H](O)[C@H](C)O2)Oc2ccc(cc2Cl)[C@H]1O` [Vancomycin HCl]: the “Suitability against Burkholderia mallei” value in assay [1] is recorded as “No”. In addition, the “Suitability against Clostridium botulinin” value in [2] was “Yes*”. Besides, the “Suitability against Clostridium perfringens” value in assay [3] was “Yes**”. The “Suitability against Yersinia Pestis” value in [4] is on record as “No”. Moreover, the “Suitability against Brucella abortis” value in assay [5] was “No”. For the same compound, the “Effective against B anthracis in vitro” value in [8] was “effective”. The “Suitability against Bacillus anthracis” value in assay [6] is “Yes”. The “Suitability against Francisella tularensis” value in [7] was “No”.
Regarding `O=C(N[C@H](CO)[C@H](O)c1ccc([N+](=O)[O-])cc1)C(Cl)Cl` [chloramphenicol], the “Effective against B anthracis in vitro” value in assay [8] is listed as “effective”.
In the case of `O=C(O)c1cn(C2CC2)c2cc(N3CCNCC3)c(F)cc2c1=O` [ciprofloxacin], in assay [9], the “Efficacy in treatment of anthrax infection, animal models” value is recorded as “excellent efficacy”.
In the case of `CC[C@H]1OC(=O)[C@H](C)[C@@H](O[C@H]2C[C@@](C)(OC)[C@@H](O)[C@H](C)O2)[C@H](C)[C@@H](O[C@@H]2O[C@H](C)C[C@H](N(C)C)[C@H]2O)[C@](C)(O)C[C@@H](C)C(=O)[C@H](C)[C@@H](O)[C@]1(C)O` [erythromycin], the “Effective against B anthracis in vitro” value in assay [8] was “effective”.
Take penicillin: the “Sensitivity of naturally occurring anthrax strains” value in [8] is “sensitive”.
